Reference: ChEMBL document CHEMBL1201862, “PubChem BioAssay data set” (2004)
Activity calls are given as the source filed them.

Columns and labels:
[1] = viability loss in Vero cells – cytotoxicity control for Vif-APOBEC3G degradation inhibitor project, dose response (AID 1117358); format: functional; conditions: Vero
[2] = molecular target: T1, Ubiquitin-conjugating enzyme E2 N (Homo sapiens, UniProt P61088); format: functional;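 also: Dose-response confirmation in a TR-FRET assay detecting UBC13-driven polyubiquitin chain formation, inhibition measured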
T1 sequence (P61088 whole entry): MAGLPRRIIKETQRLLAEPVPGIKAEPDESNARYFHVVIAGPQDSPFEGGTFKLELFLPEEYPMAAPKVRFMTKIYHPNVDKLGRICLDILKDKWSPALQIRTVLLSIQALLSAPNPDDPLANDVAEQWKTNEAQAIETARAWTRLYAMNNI

[3] = molecular target: T2, Replicative DNA helicase DnaB (Mycobacterium tuberculosis, UniProt P9WMR3); assay: DnaB intein splicing inhibitors, dose response, biochemical, cell-free fluorescence (AID 449749); format: functional
T2 sequence (P9WMR3 whole entry): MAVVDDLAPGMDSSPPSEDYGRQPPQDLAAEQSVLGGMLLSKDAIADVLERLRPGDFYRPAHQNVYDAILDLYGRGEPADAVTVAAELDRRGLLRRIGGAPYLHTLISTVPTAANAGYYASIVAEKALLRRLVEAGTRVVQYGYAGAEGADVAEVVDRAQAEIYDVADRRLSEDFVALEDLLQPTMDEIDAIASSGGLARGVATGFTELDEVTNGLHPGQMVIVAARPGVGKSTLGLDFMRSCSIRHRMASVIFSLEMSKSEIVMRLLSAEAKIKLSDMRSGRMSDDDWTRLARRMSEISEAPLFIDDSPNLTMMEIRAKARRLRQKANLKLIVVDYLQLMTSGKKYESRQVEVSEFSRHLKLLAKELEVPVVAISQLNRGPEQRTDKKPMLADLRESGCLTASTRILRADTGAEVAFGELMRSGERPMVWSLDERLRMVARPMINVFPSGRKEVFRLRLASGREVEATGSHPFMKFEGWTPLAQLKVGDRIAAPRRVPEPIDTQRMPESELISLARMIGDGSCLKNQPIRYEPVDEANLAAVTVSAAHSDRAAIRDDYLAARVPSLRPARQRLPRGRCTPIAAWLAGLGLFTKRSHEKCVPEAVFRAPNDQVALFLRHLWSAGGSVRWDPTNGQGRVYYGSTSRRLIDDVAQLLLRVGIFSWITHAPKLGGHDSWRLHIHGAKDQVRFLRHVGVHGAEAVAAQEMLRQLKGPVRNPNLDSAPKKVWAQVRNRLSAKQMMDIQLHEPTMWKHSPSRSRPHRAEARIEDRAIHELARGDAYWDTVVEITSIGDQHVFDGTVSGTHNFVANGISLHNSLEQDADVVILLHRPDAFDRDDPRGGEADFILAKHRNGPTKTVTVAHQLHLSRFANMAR

Leucine aminopeptidase = molecular target: T3, Leucine aminopeptidase (Plasmodium falciparum 3D7, UniProt Q8IL11); assay: P. falciparum M17LAP inhibitors, primary screen, biochemical, fluorogenic H-Leu-NHMec substrate, 1536-well (AID 1619); format: functional
T3 sequence (Q8IL11 whole entry): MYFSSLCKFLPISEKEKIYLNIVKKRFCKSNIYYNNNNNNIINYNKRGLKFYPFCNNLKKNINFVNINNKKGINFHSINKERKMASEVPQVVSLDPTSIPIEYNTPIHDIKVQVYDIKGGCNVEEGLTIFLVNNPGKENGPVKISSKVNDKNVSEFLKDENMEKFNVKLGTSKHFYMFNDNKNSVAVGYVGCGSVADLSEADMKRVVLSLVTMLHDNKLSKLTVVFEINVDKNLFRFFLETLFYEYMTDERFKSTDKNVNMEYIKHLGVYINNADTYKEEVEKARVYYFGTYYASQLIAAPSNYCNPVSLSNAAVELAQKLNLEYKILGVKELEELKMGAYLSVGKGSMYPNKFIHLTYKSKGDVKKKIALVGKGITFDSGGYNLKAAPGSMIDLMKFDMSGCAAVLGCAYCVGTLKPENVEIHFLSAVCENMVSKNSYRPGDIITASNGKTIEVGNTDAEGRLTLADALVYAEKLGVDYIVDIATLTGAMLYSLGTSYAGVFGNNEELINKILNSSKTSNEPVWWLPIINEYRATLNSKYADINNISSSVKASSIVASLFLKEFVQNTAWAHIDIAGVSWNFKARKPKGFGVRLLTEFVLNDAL

Protein RecA = molecular target: T4, Protein RecA (Mycobacterium tuberculosis, UniProt P9WHJ3); assay: Fluorescence Cell-Free Homogeneous Dose Retest to Identify Inhibitors of RecA-Intein Splicing Activity. [Related pubchem assays (depositor defined):AID2097, AID2223, AID489010, AID492950]; format: functional
T4 sequence (P9WHJ3 whole entry): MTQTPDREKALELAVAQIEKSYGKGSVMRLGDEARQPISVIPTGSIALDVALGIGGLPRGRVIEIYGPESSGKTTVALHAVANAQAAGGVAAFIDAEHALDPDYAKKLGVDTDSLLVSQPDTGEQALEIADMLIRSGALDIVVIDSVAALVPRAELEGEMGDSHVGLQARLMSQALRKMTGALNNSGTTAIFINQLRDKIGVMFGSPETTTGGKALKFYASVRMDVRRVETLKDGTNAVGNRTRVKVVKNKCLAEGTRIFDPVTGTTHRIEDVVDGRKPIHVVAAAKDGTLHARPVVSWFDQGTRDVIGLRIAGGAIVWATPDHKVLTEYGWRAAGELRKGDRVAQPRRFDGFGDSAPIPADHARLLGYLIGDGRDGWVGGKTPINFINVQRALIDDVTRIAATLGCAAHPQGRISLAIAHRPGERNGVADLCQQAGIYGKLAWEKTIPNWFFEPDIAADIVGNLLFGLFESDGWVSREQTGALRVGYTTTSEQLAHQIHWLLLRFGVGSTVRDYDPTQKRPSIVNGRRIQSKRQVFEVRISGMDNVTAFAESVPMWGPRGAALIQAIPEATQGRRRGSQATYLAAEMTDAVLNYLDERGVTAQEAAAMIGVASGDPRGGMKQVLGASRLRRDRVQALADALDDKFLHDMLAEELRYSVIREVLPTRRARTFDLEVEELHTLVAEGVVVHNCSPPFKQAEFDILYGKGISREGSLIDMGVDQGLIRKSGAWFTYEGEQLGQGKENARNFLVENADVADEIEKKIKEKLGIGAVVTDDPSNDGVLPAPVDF

[4] = HIV-1 Vif–A3G interaction blockers – biochemical, TR-FRET, GST-Vif 1-94, biotin-A3G peptide, dose response retest, primary screen (AID 1117319); format: functional;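 also: TR-FRET signal of purified GST-Vif binding a biotinylated A3G peptide; inhibitors lower the FRET signal by blocking Vif and A3G binding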
Estrogen receptor beta = Estrogen receptor beta (Homo sapiens, UniProt Q92731); assay: blockers of SRC-3 recruitment to ERβ – biochemical, ELISA, streptavidin-HRP readout, orthogonal assay, confirmation (AID 1060)
Chain of Estrogen receptor beta (Q92731 whole entry): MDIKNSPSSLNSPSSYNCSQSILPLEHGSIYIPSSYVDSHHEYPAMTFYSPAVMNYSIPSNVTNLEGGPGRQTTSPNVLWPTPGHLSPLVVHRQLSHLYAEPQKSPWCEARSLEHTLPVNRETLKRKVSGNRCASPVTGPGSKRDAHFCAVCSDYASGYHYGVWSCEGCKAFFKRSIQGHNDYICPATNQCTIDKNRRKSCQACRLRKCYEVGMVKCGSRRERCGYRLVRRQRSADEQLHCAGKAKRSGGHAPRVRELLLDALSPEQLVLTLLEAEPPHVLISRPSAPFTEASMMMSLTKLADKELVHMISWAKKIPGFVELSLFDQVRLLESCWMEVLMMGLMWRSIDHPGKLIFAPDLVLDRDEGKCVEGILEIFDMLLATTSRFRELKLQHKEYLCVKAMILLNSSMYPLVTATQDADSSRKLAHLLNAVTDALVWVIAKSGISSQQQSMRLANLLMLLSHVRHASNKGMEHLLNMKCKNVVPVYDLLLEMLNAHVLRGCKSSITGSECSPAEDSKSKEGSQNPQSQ

Cytochrome P450 3A4 = Cytochrome P450 3A4 (Homo sapiens, UniProt P08684); conditions: Potency;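 also: confirmatory qHTS run detecting inhibitors and substrates of CYP3A4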
Chain of Cytochrome P450 3A4 (P08684 whole entry): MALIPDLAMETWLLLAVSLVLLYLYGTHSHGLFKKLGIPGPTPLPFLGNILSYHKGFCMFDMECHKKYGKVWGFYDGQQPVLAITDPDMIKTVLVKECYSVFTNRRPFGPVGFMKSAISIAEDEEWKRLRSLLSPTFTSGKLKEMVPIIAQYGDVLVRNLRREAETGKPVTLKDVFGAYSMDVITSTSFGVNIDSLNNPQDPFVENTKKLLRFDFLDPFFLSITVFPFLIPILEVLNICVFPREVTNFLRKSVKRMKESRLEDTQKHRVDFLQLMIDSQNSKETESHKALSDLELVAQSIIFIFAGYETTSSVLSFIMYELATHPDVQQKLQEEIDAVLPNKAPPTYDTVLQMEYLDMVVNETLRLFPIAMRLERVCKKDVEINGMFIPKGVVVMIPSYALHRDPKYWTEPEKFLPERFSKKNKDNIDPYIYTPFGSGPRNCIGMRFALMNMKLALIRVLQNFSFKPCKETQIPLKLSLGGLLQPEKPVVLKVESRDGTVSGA

[5] = toxicity to human hepatoma HepG2 cells – cell-based, cherry-picked samples, cytotoxicity control, dose response (AID 1159577); format: functional
[6] = P. falciparum Dd2 growth inhibitors, dose response, SYBR Green, cherry-picked samples (AID 1159567); format: functional, cell-based
[7] = reduced cellular PGC1a acetyl-lysine signal – cell-based, cherry-picked samples, dose response (AID 720514); format: functional;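 also: potency may reflect raised or lowered acetylation signal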
Paired box protein Pax-8 = Paired box protein Pax-8 (Homo sapiens, UniProt Q06710); assay: PAX8 transcriptional activity inhibition in RMG-I – RMG-I cells, luciferase, cherry-pick, dose response (AID 687027); format: functional, cell-based;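 also: luciferase reporter driven by Pax8 target thyroperoxidase promoter measured by SteadyGlo luminescence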
Chain of Paired box protein Pax-8 (Q06710 whole entry): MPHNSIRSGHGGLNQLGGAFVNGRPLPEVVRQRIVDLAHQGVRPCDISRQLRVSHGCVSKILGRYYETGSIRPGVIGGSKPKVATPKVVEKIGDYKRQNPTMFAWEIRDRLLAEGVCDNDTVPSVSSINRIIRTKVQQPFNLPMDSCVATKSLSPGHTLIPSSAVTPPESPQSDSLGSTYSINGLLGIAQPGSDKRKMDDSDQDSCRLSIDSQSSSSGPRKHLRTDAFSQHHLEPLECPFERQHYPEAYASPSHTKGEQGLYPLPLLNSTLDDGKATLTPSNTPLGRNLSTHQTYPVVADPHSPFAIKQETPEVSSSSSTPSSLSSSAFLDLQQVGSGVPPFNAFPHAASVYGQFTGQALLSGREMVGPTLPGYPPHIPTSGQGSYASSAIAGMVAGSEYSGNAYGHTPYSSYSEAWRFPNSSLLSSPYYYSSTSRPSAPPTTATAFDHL

[8] = OVCAR-3 cell viability loss – plate reader, dry powder samples, PAX8 inhibitor project, dose response (AID 743044); format: functional, cell-based
[9] = OVCAR8 cell viability loss – plate reader, dry powder samples, PAX8 project, dose response (AID 743197); format: functional, cell-based; conditions: OVCAR-8
[10] = HEK-293T cell viability reduction – luminescence, B-cell screen hits, cytotoxicity control for BCR NF-kB inhibitor project, dose response (AID 489021); format: functional, cell-based;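 also: HEK-293T cells carrying an NF-kB luciferase reporter; cells exposed to compound for about 14 hours before viability readout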

Compound: CN(C)C(=O)c1ccc(COc2ccccc2Br)o1
- CC50 [1]: > 40 µM (active)

Compound: Cc1sc2ncnc(N)c2c1C
- IC50 [2]: > 20 µM (inactive)

Compound: Cc1cc(-c2[nH]nc3c2C(c2cccc(O)c2)C(C#N)=C(N)O3)c(C)s1 (configuration not stated)
- AC50 [3]: 4.58 µM (active)
- IC50 (Leucine aminopeptidase): 52.8 µM (active)
- EC50 (Protein RecA): 2.65 µM (active)
- IC50 [4]: > 100 µM (active)

Compound: O=C(Nc1ccc2c(c1)OCO2)c1cc2ncc(Br)cn2n1
- IC50 (Estrogen receptor beta): < 0.023 µM (not active)

Compound: COC(=O)c1c(C)cc(OC)cc1O
- AC50 (Cytochrome P450 3A4): 39.8 µM (inconclusive)

Compound: CCC(=O)NC(C)c1cc(Cl)c2ccccc2c1O (configuration not stated)
- IC50 [2]: > 20 µM (inactive)

Compound: COc1ccnc2c1c(=O)n(Cc1ccc(F)cc1)c(=O)n2C
- IC50 [2]: > 20 µM (inactive)

Compound: OC[C@H]1[C@@H](c2ccc(C#CC3CCCC3)cc2)[C@@H]2CN(CCC(F)(F)F)CCCCN12
- AC50 [5]: 10.5 µM (active)
- AC50 [6]: 0.346 µM (active)
- AC50 [7]: 11 µM (active)

Compound: O=C(Nc1ccc(C(F)(F)F)cc1)Nc1ccc2c(c1)[C@H]1C[C@@H](CC(=O)N3CCc4ccccc4C3)O[C@H](CO)[C@H]1O2
- AC50 (Paired box protein Pax-8): 4.1 µM (active)
- AC50 [8]: 23.6 µM (active)
- AC50 [9]: 54 µM (active)

Compound: CCc1cccc(NC(=O)c2ccc(CNc3c(N4CCCC4)c(=O)c3=O)cc2)c1
- IC50 [10]: > 80 µM (inactive)
